From ChEMBL document CHEMBL1126623, “Neuraminidase-resistant hemagglutination inhibitors: acrylamide copolymers containing a C-glycoside of N-acetylneuraminic acid” (J Med Chem, 1993)

Organism: Gallus gallus
Assay: Tested for inhibition of agglutination of chicken erythrocytes in vitro
Format: functional

Ki: 400 nM
SMILES: C=CC(=O)NCCSCCCC1(C(=O)O)CC(O)C(NC(C)=O)C(C(O)C(O)CO)O1 (stereo unspecified)
